# Experimental data published in patent publication US10703723B2 (Truly Translational Sweden AB, priority 2017, dated 2020).
# Like-named read-outs stand apart in the source and are kept apart here.
# Key:
# [1] = appearance of test formulations / solubility over time in PBC buffer (pH 7.4); type: physicochemical; settings: 0.5% CMC in phosphate buffer (pH 7.4)
# [2] = solubility in de-ionized water at rt after 24 h; settings: thermodynamic from solid
# Experimental: The produced examples were characterized regarding identity, crystal modification, thermal properties, melting point, solubility in water, purity, and hygroscopicity using the following methods:
# The flow rate was 1.0 mL/min, injection volume 5 μL and detection wavelengths 358 nm (for assay) and 260 nm (for chromatographic purity). Quantitation was performed using external standard methodology. The assay method has been validated with respect to selectivity, repeatability and linearity.
# [3] = in vivo; settings: rat, po, 40 mg/kg
# Experimental: In accordance with Swedish legislations for preclinical in vivo studies in rodents and following evaluation and approval of the experimental procedures the local ethical committee (M388-12), following acclimatization to the housing conditions for a minimum of 7 days after arrival, male Wistar (Hannover) rats (Taconic, Denmark), average weight 300 g; average age 8-10 weeks, were treated with test items (see table 1); 12-16 h prior to dosing all food except for an amount equivalent to a half day consumption was removed. […] The rats were conscious during sample collection and the blood was taken from the sub-lingual vein. Blood samples were collected from each rat over a period of up to 24 h. At each time point two aliquots of 50 μL each was added to a vial containing 150 μL of sterile water. The samples were mixed immediately and stored in −18° C. until preparation for bioanalysis commenced. All formulations were prepared on the same day that dosing took place. The body weight of the rat was recorded before dosing. The weight of the syringe was recorded before and after administration to allow calculation of the actual amount of test sample delivered. Actual dose administered was used during the evaluation of the data.
# Samples and standards were injected by a HTC PAL from CTC analytics into an LC system from Shimadzu consisting of a high pressure gradient system of two LC-10 AD pumps controlled by a SCL-10A controller from Shimadzu. The samples were separated using reverse-phase chromatography with gradient elution at a flow rate of 0.8 mL/min. Mobile phases were A:94.9/5/0.1 water/acetonitrile/formic acid and B:5/94.9/0.1 water/acetonitrile/formic acid. Gradient started at 0% B and increased linearly to 100% B in 4 minutes, 100% B was kept for 0.5 minutes and then the system returned to 0% B in 0.1 minutes. The system was equilibrated for 1.4 minutes until the total run time of 6 minutes. The eluent was analyzed by a Quattro Ultima from Micromass equipped with an electrospray ion source. Data was collected and calibrations were calculated by MassLynx 4.0 software. […] The eluent was ionized by negative ion electrospray and the mrm transition from 397 to 197 m/z was monitored.
# The diluted blood sample (50 μL blood, 150 μL water) was thawed and mixed. 400 μL of acetonitrile, to precipitate the protein was added and mixed again. The sample was centrifuged at 5000 g for 5 minutes. 100 μL of the supernatant was transferred to a 300 μL glass vial and 100 μL of water was added to reduce the acetonitrile concentration.
# The concentration of the standard curve was in the range from 5 nM to 15625 nM. Samples with analyte concentrations above the upper limit of quantification were diluted with matrix to reach within the assay range. A non-compartmental analysis (NCA) was performed using the Phoenix WinNonLin analysis tool.
# [4] = cited from earlier work; for time to steady state levels: sulfasalazine therapy
# [5] = ambient temperature; cited from earlier work
# [6] = RA, 24 weeks, cited from earlier work
solubility at 24 h [2],Structure (SMILES),Appearance of test formulations t = 0 h [1],Appearance of test formulations t = 4 h [1],Ratio SP to SSZ for AUC0-4 h (h*nmol/L) [3],Ratio SP to SSZ for Cmax (nmol/L) [3],also measured
> 5000 µg/mL,"O=C(OCC(=O)N1CCOCC1)c1cc(/N=N/c2ccc(S(=O)(=O)Nc3ccccn3)cc2)ccc1O [Compound 1a, 2-morpholino-2-oxoethyl-2-hydroxy-5-((4-(N-(pyridine-2-yl)sulfamoyl)phenyl)diazenyl) benzoate]",clear solution,clear solution,–,–,–
> 5000 µg/mL,"CNC(=O)COC(=O)c1cc(/N=N/c2ccc(S(=O)(=O)Nc3ccccn3)cc2)ccc1O [Compound 2a, 2-(methylamino)-2-oxoethyl-2-hydroxy-5-((4-(N-(pyridine-2-yl)sulfamoyl)phenyl)diazenyl) benzoate]",clear solution,clear solution,–,–,–
–,"CC(C)NC(=O)COC(=O)c1cc(N=Nc2ccc(S(=O)(=O)Nc3ccccn3)cc2)ccc1O [Compound 2d, 2-(isopropylamino)-2-oxoethyl-2-hydroxy-5-((4-(N-(pyridine-2-yl)sulfamoyl)phenyl)diazenyl) benzoate]",clear solution,clear solution,2:1,2:1,–
–,"O=C(COC(=O)c1cc(N=Nc2ccc(S(=O)(=O)Nc3ccccn3)cc2)ccc1O)NCC1CC1 [Compound 2f, 2-((cyclopropylmethyl)amino)-2-oxoethyl-2-hydroxy-5-((4-(N-(pyridine-2-yl)sulfamoyl)phenyl)diazenyl) benzoate]",clear solution,milky,6:1,2:1,–
–,"COCCNC(=O)COC(=O)c1cc(N=Nc2ccc(S(=O)(=O)Nc3ccccn3)cc2)ccc1O [Compound 2h, 2-(2-methoxylethyl)amino)-2-oxoethyl-2-hydroxy-5-((4-(N-(pyridine-2-yl)sulfamoyl)phenyl)diazenyl) benzoate]",clear solution,clear solution,8:1,6:1,–
> 500 µg/mL,"CN(C)C(=O)COC(=O)c1cc(/N=N/c2ccc(S(=O)(=O)Nc3ccccn3)cc2)ccc1O [Compound 3a, 2-(dimethylamino)-2-oxoethyl-2-hydroxy-5-((4-(N-(pyridine-2-yl)sulfamoyl)phenyl)diazenyl) benzoate]",clear solution,milky,–,–,–
–,"CCN(CC)C(=O)COC(=O)c1cc(N=Nc2ccc(S(=O)(=O)Nc3ccccn3)cc2)ccc1O [Compound 3b, 2-(diethylamino)-2-oxoethyl-2-hydroxy-5-((4-(N-(pyridine-2-yl)sulfamoyl)phenyl)diazenyl) benzoate]",clear solution,clear solution,8:1,5:1,–
> 1000 µg/mL,"CCN(C)C(=O)COC(=O)c1cc(/N=N/c2ccc(S(=O)(=O)Nc3ccccn3)cc2)ccc1O [Compound 4a, 2-(ethyl(methyl)amino)-2-oxoethyl-2-hydroxy-5-((4-(N-(pyridine-2-yl)sulfamoyl)phenyl)diazenyl) benzoate]",clear solution,clear solution,–,–,–
–,"O=C(O)c1cc(/N=N/c2ccc(S(=O)(=O)Nc3ccccn3)cc2)ccc1O [Sulfasalazine, 2-hydroxy-5-[2-[4-[(2-pyridinylamino)sulfonyl]phenyl]diazenyl]-benzoic acid]",–,–,–,–,"Tmax ([3]; male, Wistar (Hannover)): 0.25 h; Tmax for SP ([3]; male, Wistar (Hannover)): 4 h; time to steady state levels of sulfasalazine ([4]; multiple dosing): ≤ 24 h; water solubility [5]: less than 0.05 mg/mL; overall clinical status ([6]; fast acetylators, 3 g/day): marked improvement; overall clinical status ([6]; slow acetylators, half of the SSZ dose (1.5 g/d)): remained unchanged"
–,CC(=O)Nc1ccc(S(=O)(=O)Nc2ccccn2)cc1 [acetylated sulfapyridine],–,–,–,–,time to steady state levels [4]: 72 h
–,Nc1ccc(S(=O)(=O)Nc2ccccn2)cc1 [sulfapyridine],–,–,–,–,elimination half-life ([4]; fast acetylators): 5.5 h; total plasma clearance ([4]; fast acetylators): 135.3 mL/min; time after which metabolite can be detected in the plasma ([4]; following oral administration of sulfasalazine): about 10 hours; plasma protein binding ([4]; no difference between fast and slow acetylators): ca. 50 °; elimination half-life ([4]; slow acetylators): 15.3 h; total plasma clearance ([4]; slow acetylators): 36.9 mL/min; time to steady state levels [4]: 72 h
